From US20220088016A1, “CANCER TREATMENT USING MULTI-TARGETED KINASE INHIBITOR IN COMBINATION OF PROTEIN KINASE BIOMARKERS” (ZHEJIANG CROWNMAB BIOTECH CO. LTD., priority 2019, published 2022)
pIC50: −log10 of the molar value.

Columns and labels:
Test in all cases: Kinase IC50 (Eurofins KinaseProfiler)
Format in all cases: biochemical
Aurora-A (h) = target: T1, Aurora-A (h) (Homo sapiens, UniProt O14965)
T1 construct: purchased Eurofins
Description: (§1) CBT-102 were tested against each of the selected kinases using the Eurofins standard KinaseProfder assays and following the relevant standard operating procedures. The required volume of the 50× stock of test compound (CBT-102) was added to the assay well, before a reaction mix containing the enzyme and substrate was added. The reaction was initiated by the addition of ATP at the selected concentration. There was no pre-incubation of the compound with the enzyme/substrate mix prior to ATP addition.
(§2) Data are handled using a custom-built in-house analysis software. Results are expressed as kinase activity remaining, as a percentage of the DMSO control. This is calculated using the following formula: […]
(§3) For IC50 determinations, data are analyzed using XLFit version 5.3 (ID Business Solutions).

Aurora-B (h) = target: T2, Aurora-B (h) (Homo sapiens, UniProt Q96GD4)
T2 construct: purchased Eurofins
Description: as §1, §2, §3

B-Raf (h) = target: T3, B-Raf (h) (Homo sapiens, UniProt P15056)
T3 construct: purchased Eurofins
Description: as §1, §2, §3

CDK4/cyclinD3 (h) = target: T4, CDK4/cyclinD3 (h) (Homo sapiens, UniProt P11802)
T4 construct: purchased Eurofins (KinaseProfiler service)
Description: as §1, §2, §3

CDK6/cyclinD3 (h) = target: T5, CDK6/cyclinD3 (h) (Homo sapiens, UniProt Q00534)
T5 construct: purchased Eurofins (KinaseProfiler service)
Description: as §1, §2, §3

CDKL2 (h) = target: T6, CDKL2 (h) (Homo sapiens, UniProt Q92772)
T6 construct: purchased Eurofins (KinaseProfiler service)
Description: as §1, §2, §3

EphB2 (h) = target: T7, EphB2 (h) (Homo sapiens, UniProt P29323)
T7 construct: purchased Eurofins (KinaseProfiler service)
Description: as §1, §2, §3

FGFR1 (h) = target: T8, FGFR1 (h) (Homo sapiens, UniProt P11362)
T8 construct: purchased Eurofins (KinaseProfiler service)
T8 sequence (P11362 22-822): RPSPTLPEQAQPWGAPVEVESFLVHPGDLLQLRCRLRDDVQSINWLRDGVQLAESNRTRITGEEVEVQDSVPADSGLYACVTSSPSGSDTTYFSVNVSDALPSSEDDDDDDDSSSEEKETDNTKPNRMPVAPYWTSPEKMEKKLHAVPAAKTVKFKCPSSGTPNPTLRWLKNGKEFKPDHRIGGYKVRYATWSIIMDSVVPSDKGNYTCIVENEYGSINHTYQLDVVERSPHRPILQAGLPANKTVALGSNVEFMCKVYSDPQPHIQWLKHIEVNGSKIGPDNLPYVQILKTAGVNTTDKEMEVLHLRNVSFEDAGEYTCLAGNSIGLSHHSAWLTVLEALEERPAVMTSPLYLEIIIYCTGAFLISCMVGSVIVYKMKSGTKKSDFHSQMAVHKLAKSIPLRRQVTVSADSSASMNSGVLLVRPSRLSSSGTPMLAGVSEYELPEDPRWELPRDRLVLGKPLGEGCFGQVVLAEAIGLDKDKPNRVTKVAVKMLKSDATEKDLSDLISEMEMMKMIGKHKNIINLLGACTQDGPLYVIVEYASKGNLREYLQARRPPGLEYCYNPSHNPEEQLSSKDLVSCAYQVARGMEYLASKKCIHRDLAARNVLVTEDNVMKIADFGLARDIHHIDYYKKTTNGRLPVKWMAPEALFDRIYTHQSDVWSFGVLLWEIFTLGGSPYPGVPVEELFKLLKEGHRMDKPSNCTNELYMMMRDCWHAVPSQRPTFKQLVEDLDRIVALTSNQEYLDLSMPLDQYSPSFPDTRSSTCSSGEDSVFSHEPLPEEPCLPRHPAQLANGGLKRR
Description: as §1, §2, §3

FGFR2 (h) = target: T9, FGFR2 (h) (Homo sapiens, UniProt P21802)
T9 construct: purchased Eurofins (KinaseProfiler service)
T9 sequence (P21802 22-821): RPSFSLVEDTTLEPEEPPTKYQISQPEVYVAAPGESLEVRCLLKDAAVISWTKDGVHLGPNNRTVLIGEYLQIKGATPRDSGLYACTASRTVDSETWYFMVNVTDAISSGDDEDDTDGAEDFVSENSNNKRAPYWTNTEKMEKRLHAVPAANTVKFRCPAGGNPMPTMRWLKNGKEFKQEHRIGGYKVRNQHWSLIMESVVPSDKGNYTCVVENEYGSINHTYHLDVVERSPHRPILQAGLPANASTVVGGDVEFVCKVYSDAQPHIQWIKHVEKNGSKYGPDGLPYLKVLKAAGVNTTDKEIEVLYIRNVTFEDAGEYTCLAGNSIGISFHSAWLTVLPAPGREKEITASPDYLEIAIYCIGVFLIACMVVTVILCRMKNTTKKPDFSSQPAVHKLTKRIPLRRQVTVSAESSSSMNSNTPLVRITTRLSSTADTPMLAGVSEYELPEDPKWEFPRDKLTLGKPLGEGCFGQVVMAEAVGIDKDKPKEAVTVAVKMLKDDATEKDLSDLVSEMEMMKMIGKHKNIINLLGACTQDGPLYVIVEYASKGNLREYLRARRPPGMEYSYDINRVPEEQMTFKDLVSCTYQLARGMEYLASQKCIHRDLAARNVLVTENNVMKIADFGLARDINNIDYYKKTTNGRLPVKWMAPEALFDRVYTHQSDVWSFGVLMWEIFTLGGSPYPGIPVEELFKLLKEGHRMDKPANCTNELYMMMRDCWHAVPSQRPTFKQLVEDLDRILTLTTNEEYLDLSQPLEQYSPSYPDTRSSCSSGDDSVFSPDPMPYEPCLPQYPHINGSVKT
Description: as §1, §2, §3

FGFR3 (h) = target: T10, FGFR3 (h) (Homo sapiens, UniProt P22607)
T10 construct: purchased Eurofins (KinaseProfiler service)
T10 sequence (P22607 23-806): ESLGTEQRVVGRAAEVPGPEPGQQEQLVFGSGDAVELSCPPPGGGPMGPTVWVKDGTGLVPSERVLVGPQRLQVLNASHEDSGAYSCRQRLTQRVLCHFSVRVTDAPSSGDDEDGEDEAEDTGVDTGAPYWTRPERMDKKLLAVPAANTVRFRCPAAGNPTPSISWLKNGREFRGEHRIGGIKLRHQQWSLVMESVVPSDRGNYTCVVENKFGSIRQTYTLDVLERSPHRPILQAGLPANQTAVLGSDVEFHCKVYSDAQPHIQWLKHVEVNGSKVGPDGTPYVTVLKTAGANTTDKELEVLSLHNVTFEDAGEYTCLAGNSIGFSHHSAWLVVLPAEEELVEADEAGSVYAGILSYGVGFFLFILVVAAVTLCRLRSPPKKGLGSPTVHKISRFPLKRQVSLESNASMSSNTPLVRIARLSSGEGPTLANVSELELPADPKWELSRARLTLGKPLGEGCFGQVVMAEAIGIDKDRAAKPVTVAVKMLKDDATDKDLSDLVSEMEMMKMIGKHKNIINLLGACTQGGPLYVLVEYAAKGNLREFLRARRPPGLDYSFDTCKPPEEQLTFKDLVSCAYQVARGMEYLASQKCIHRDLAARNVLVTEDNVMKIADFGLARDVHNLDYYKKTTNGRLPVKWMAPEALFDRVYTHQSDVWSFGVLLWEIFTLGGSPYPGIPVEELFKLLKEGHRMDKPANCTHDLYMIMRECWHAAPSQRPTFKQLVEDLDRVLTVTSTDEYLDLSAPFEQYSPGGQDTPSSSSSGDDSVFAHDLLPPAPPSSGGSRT
Description: as §1, §2, §3

Flt1 (h) = target: T11, Flt1 (h) (Homo sapiens, UniProt P17948)
T11 construct: purchased Eurofins (KinaseProfiler service)
Description: as §1, §2, §3

Flt3 (h) = target: T12, Flt3 (h) (Homo sapiens, UniProt P36888)
T12 construct: purchased Eurofins (KinaseProfiler service)
Description: as §1, §2, §3

Flt4 (h) = target: T13, Flt4 (h) (Homo sapiens, UniProt P35916)
T13 construct: purchased Eurofins (KinaseProfiler service)
Description: as §1, §2, §3

IRAK4 (h) = target: T14, IRAK4 (h) (Homo sapiens, UniProt Q9NWZ3)
T14 construct: purchased Eurofins (KinaseProfiler service)
T14 sequence (Q9NWZ3 whole entry): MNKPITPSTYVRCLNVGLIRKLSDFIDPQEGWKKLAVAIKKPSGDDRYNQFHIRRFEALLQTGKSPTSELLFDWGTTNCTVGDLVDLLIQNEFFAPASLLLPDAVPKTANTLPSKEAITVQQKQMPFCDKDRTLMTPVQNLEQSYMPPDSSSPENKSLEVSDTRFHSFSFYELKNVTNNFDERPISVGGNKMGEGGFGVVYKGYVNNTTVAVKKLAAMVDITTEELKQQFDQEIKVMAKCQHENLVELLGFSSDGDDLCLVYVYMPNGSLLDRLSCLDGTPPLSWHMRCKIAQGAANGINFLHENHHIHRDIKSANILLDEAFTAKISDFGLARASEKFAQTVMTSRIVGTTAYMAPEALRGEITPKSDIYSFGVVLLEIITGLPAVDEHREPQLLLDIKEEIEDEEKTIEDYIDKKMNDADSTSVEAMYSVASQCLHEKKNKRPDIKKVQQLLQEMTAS
Description: as §1, §2, §3

JAK2 (h) = target: T15, JAK2 (h) (Homo sapiens, UniProt O60674)
T15 construct: purchased Eurofins (KinaseProfiler service)
Description: as §1, §2, §3

KDR (h) = target: T16, KDR (h) (Homo sapiens, UniProt P35968)
T16 construct: purchased Eurofins (KinaseProfiler service)
Description: as §1, §2, §3

Lck (h) = target: T17, Lck (h) (Homo sapiens, UniProt P06239)
T17 construct: purchased Eurofins (KinaseProfiler service)
Description: as §1, §2, §3

MAP4K4 (h) = target: T18, MAP4K4 (h) (Homo sapiens, UniProt O95819)
T18 construct: purchased Eurofins (KinaseProfiler service)
T18 sequence (O95819 whole entry): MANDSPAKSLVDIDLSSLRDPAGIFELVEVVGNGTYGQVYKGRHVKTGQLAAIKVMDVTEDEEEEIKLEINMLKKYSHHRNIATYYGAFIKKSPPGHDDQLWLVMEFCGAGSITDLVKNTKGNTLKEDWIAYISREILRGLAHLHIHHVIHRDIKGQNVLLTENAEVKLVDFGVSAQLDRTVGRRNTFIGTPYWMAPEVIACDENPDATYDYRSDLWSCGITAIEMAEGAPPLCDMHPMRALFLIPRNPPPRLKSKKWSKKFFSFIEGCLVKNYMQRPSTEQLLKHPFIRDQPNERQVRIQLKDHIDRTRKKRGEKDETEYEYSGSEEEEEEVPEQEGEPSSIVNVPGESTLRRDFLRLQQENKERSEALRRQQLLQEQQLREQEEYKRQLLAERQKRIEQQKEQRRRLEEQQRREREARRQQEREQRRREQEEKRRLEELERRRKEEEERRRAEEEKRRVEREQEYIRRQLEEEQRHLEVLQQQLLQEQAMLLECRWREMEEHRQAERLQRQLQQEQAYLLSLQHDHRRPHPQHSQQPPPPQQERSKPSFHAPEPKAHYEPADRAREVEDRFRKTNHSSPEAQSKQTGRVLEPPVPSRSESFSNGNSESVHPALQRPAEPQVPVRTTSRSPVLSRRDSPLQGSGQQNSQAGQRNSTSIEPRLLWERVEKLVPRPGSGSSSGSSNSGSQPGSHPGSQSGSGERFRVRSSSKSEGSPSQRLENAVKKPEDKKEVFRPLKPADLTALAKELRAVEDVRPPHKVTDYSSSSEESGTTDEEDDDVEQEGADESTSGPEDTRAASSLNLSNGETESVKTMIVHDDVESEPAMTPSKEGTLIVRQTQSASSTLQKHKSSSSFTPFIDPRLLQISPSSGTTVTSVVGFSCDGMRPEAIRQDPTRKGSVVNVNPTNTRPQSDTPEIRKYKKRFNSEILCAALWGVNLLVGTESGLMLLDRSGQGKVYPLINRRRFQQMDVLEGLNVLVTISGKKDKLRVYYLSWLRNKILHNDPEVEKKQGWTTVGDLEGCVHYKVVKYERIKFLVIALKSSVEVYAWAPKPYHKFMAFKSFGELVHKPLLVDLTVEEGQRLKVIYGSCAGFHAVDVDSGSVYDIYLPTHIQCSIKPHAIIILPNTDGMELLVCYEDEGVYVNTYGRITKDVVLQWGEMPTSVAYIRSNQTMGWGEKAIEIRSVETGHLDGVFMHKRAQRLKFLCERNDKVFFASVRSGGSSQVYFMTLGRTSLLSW
Description: as §1, §2, §3

MLK1 (h) = target: T19, MLK1 (h) (Homo sapiens, UniProt P80192)
T19 construct: purchased Eurofins (KinaseProfiler service)
Description: as §1, §2, §3

Met (h) = target: T20, Met (h) (Homo sapiens, UniProt P08581)
T20 construct: purchased Eurofins (KinaseProfiler service)
Description: as §1, §2, §3

MuSK (h) = target: T21, MuSK (h) (Homo sapiens, UniProt O15146)
T21 construct: purchased Eurofins (KinaseProfiler service)
Description: as §1, §2, §3

PDGFRβ (h) = target: T22, PDGFRβ (h) (Homo sapiens, UniProt P09619)
T22 construct: purchased Eurofins (KinaseProfiler service)
Description: as §1, §2, §3

PKA (h) = target: T23, PKA (h) (Homo sapiens, UniProt P17612)
T23 construct: purchased Eurofins
Description: as §1, §2, §3

PTK5 (h) = target: T24, PTK5 (h) (Homo sapiens, UniProt P42685)
T24 construct: purchased Eurofins
T24 sequence (P42685 whole entry): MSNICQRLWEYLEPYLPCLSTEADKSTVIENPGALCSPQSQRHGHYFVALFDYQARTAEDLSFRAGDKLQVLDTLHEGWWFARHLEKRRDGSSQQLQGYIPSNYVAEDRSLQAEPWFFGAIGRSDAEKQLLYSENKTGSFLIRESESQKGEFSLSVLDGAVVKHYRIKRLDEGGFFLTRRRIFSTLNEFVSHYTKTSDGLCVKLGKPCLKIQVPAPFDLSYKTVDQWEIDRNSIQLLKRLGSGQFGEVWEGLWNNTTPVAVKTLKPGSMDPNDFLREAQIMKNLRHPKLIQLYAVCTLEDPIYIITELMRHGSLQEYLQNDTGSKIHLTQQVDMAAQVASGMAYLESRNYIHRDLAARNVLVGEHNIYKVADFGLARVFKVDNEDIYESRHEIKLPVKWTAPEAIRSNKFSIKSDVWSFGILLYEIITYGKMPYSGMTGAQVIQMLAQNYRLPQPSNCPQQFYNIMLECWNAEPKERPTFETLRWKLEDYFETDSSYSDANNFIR
Description: as §1, §2, §3

PrKX (h) = target: T25, PrKX (h) (Homo sapiens, UniProt P51817)
T25 construct: purchased Eurofins
T25 sequence (P51817 whole entry): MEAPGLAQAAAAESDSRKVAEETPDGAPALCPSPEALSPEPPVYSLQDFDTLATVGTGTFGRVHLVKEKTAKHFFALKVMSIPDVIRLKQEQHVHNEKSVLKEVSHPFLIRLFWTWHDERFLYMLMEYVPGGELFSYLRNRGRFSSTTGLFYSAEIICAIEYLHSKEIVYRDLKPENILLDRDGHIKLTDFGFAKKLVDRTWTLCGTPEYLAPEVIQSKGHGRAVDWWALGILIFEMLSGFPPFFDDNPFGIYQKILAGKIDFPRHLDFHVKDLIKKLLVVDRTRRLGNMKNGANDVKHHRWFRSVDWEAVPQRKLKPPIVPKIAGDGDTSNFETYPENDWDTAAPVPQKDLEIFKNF
Description: as §1, §2, §3

RIPK2 (h) = target: T26, RIPK2 (h) (Homo sapiens, UniProt O43353)
T26 construct: purchased Eurofins
Description: as §1, §2, §3

Ret (V804M) (h) = target: T27, Ret (V804M) (h) (Homo sapiens, UniProt P07949, V804M)
T27 construct: purchased Eurofins
Description: as §1, §2, §3

Ret (h) = target: T28, Ret (h) (Homo sapiens, UniProt P07949)
T28 construct: purchased Eurofins
Description: as §1, §2, §3

SGK3 (h) = target: T29, SGK3 (h) (Homo sapiens, UniProt Q96BR1)
T29 construct: purchased Eurofins
Description: as §1, §2, §3

Syk (h) = target: T30, Syk (h) (Homo sapiens, UniProt P43405)
T30 construct: purchased Eurofins
Description: as §1, §2, §3

TAK1 (h) = target: T31, TAK1 (h) (Homo sapiens, UniProt O43318)
T31 construct: purchased Eurofins
Description: as §1, §2, §3

TYK2 (h) = target: T32, TYK2 (h) (Homo sapiens, UniProt P29597)
T32 construct: purchased Eurofins
Description: as §1, §2, §3

Wee1 (h) = target: T33, Wee1 (h) (Homo sapiens, UniProt P30291)
T33 construct: purchased Eurofins
Description: as §1, §2, §3

ZAK (h) = target: T34, ZAK (h) (Homo sapiens, UniProt Q9NYL2)
T34 construct: purchased Eurofins
Description: as §1, §2, §3

cKit (D816V) (h) = target: T35, cKit (D816V) (h) (Homo sapiens, UniProt P10721, D816V)
T35 construct: purchased Eurofins (KinaseProfiler service)
Description: as §1, §2, §3

Cc1cc(Oc2cc(NC(=O)C3CC3)ncn2)ccc1NC(=O)Nc1ccc(Cl)c(C(F)(F)F)c1 [CBT-102]
pIC50 (Aurora-A (h)): 5.75
pIC50 (Aurora-B (h)): 6.28
pIC50 (B-Raf (h)): 6.46
pIC50 (CDK4/cyclinD3 (h)): < 5.00
pIC50 (CDK6/cyclinD3 (h)): < 5.00
pIC50 (CDKL2 (h)): 7.43
pIC50 (EphB2 (h)): 6.38
pIC50 (FGFR1 (h)): 6.39
pIC50 (FGFR2 (h)): 6.22
pIC50 (FGFR3 (h)): < 5.00
pIC50 (Flt1 (h)): 7.68
pIC50 (Flt3 (h)): 5.96
pIC50 (Flt4 (h)): 8.10
pIC50 (IRAK4 (h)): < 5.00
pIC50 (JAK2 (h)): < 5.00
pIC50 (KDR (h)): 7.60
pIC50 (Lck (h)): 5.87
pIC50 (MAP4K4 (h)): 6.12
pIC50 (MLK1 (h)): 5.22
pIC50 (Met (h)): 5.54
pIC50 (MuSK (h)): 6.56
pIC50 (PDGFRβ (h)): 5.88
pIC50 (PKA (h)): < 5.00
pIC50 (PTK5 (h)): 7.28
pIC50 (PrKX (h)): < 5.00
pIC50 (RIPK2 (h)): 6.97
pIC50 (Ret (V804M) (h)): 6.16
pIC50 (Ret (h)): 7.37
pIC50 (SGK3 (h)): < 5.00
pIC50 (Syk (h)): < 5.00
pIC50 (TAK1 (h)): 6.32
pIC50 (TYK2 (h)): < 5.00
pIC50 (Wee1 (h)): < 5.00
pIC50 (ZAK (h)): 7.59
pIC50 (cKit (D816V) (h)): < 5.00
